# In PMC5431883, “Enhancing Specific Disruption of Intracellular Protein Complexes by Hydrocarbon Stapled Peptides Using Lipid Based Delivery” (Scientific Reports, 2017):
# Entries after “also recorded” stand apart in the source; their conditions may differ. Where two headings read alike, the source gives them in different places. Positions of bridges follow the written chain, without caps; N, C: chain ends. Non-standard residues stand in square brackets, D forms with d. Residues, ends and D or L forms follow the SMILES beside them. R8 = C=CCCCCCC[C@@](C)(N)C(=O)O; S5 = C=CCCC[C@](C)(N)C(=O)O; Ahx = NCCCCCC(=O)O
# Tests used:
# [1] = biological target: T1, Mdm2 (1-125) (Homo sapiens, UniProt Q00987); test: Mdm2 competitive fluorescence anisotropy assay (FAM-labeled 12/1 peptide displacement); assay type: binding
# T1 construct: Purified MDM2 (1-125) protein was titrated against 50 nM carboxyfluorescein (FAM)-labeled; GST (N, cleaved yes); made in house; host or cells: E. coli BL21 DE3 (pGEX-6P-1)
# T1 sequence (Q00987 1-125): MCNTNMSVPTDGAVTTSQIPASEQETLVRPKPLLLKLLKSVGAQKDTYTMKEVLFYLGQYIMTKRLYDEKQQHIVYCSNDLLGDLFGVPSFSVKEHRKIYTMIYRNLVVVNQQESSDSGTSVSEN
# [2] = system: T22 p53 reporter cells; test: p53 gene reporter assay (β-galactosidase) in T22 cells; assay type: cell-based, murine; conditions: 18 h, 1% DMSO, normalised to 25 µM Nutlin, 4 parameter fit to 10 point titration
# Protocol: T22 cells, which were stably transfected with a p53 responsive β-galactosidase reporter, were seeded into a 96-well plate at a cell density of 8000 cells per well. Cells were also maintained in Dulbecco’s Minimal Eagle Medium (DMEM) with 10% fetal calf serum (FCS) and 1% (v/v) penicillin/streptomycin. The cells were incubated for 24 hours and followed by cell media removal and replacement with 90 µl of fresh DMEM either containing 10% FCS or 0% FCS. 10 µl of each compound was then added directly to each well and incubated for 18 hours. Final working concentration of DMSO was 1% v/v. […] Measurements were carried out using an Envision multiplate reader (Perkin-Elmer). […] This was then used to normalize the experimental results.
# [3] = system: T22 cells; test: Lactate dehydrogenase (LDH) release assay in T22 cells; assay type: cell-based, murine; conditions: for LDH Release (T22 Cells), 0% FCS (LDH50) / LDH Release (T22 Cells), 10% FCS (LDH50): 2 h treatment, normalised to 0.1% Triton X-100 lysis, 4 parameter fit to 10 point titration
# Protocol: (§1) T22 cells or HEK 293 cells were seeded into a 96-well plate at a cell density of 5000 cells per well. Cells were maintained in Dulbecco’s Minimal Eagle Medium (DMEM) with 10% fetal bovine serum (FBS) and 1% (v/v) penicillin/streptomycin. The cells were incubated for 24 hours followed by cell media removal and addition of 90 µl of DMEM either with or without 10% FCS. Cells were then treated with compounds/peptide for 2 hours in DMEM with or without 10% FBS. Final working concentration of DMSO was 1% v/v. Corresponding negative control wells with 1% DMSO only were also prepared. Cytosolic lactate dehydrogenase release was detected using the cytoTox 96® non-radioactive cytotoxicity Assay kit (Promega) as per manufacturer’s instructions. Measurements were carried out using an Envision multiplate reader (Perkin-Elmer). Maximum LDH release was defined as the amount of LDH released when cells were lysed in the presence of 0.1% TRITON X-100 and was used to normalize the results.
# [4] = biological target: T2, Mdm2:p53 complex (Homo sapiens, UniProt Q00987); test: NanoBRET Mdm2:p53 live cell assay; assay type: cell-based; conditions: HEK293 cells, 0% FCS versus 10% FCS
# T2 construct: host or cells: HEK293
# T2 sequence (Q00987 whole entry, one chain of several): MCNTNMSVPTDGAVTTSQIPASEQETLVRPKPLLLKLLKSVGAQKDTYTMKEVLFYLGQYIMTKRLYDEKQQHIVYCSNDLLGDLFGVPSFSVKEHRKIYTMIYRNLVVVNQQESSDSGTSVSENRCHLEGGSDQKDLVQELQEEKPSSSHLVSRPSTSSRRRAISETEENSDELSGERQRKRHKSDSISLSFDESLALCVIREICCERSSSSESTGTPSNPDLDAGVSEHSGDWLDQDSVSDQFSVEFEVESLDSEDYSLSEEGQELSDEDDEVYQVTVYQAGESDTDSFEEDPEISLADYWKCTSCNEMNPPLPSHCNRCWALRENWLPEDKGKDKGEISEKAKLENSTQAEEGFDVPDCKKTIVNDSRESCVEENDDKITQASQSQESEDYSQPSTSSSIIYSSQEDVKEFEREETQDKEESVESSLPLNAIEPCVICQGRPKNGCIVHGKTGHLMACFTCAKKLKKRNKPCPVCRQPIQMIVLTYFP
# Protocol: all competitive types of experiments, it is assumed that [P]t > [L]st, otherwise considerable amounts of free labeled ligand would always be present and would interfere with measurements. Kd1 is the […]
# experimentally determined as described in the previous paragraph. The FAM-labeled peptide was dissolved in dimethyl sulfoxide (DMSO) at 1 mM and diluted into experimental buffer. Readings were carried out with an Envision Multilabel Reader (PerkinElmer). Experiments were carried out […]
# Tween 20 buffer. All titrations were carried out in triplicate. Curve-fitting was carried out using […]
# Negative control titrations of the ligands under investigation were also carried out with the fluorescently labeled peptide (in the absence of MDM2) to ensure no interactions were occurring between the ligands and FAM-labeled peptide. […]
# which would otherwise indicate an unintended interaction between the ligand and the FAM-labeled peptide to be displaced from the MDM2 binding site.
# Nanobret Mdm2:p53 Cell Based Assay
# HEK293 cells were seeded at a cell density of 250,000 cells per well into a 6 well plate and incubated overnight at 37 °C and 5% CO2 in DMEM with 0.3 mg/ml glutamine, 100 IU/ml penicillin, 100 μg/ml streptomycin and 10% fetal calf serum. Each well was transfected with a […]
# [5] = system: HEK293 cells; test: Lactate dehydrogenase (LDH) release assay in HEK293 cells; assay type: cell-based; conditions: 2 hour treatment, 12.5, 25 and 50 µM, normalised to 0.1% Triton X100 (Figure S1); for LDH release in HEK293 cells, absence of serum (in words): 0% FCS; for LDH release in HEK293 cells, high serum conditions (in words): 10% FCS
# Protocol: as §1, with “results. […]” for “results.”
# to induce LDH release in HEK293 cells after a 2 hour treatment period in A) the absence of FCS and B) the presence of 10% FCS. Compounds were tested at concentrations of 12.5 µM, 25 µM and 50 µM. Results were normalized to maximal LDH release as measured by treatment with 0.1% Triton X100.
# (1 picture or pasted object on this page, not shown here)
Structure (SMILES),improvement in affinity for Mdm2 over the library template sequence (sMTIDE-02) [1],"Kd ([1]; competitive fluorescence anisotropy, text refers to Table S1, read-out: Kd for binding to Mdm2 (as quoted in the text from Table S1))","EC50 ([2]; 0% FCS, read-out: P53 Activation (T22 Cells), 0% FCS (p53ACT50 / EC50))","EC50 ([2]; read-out: P53 Activation (T22 Cells), 10% FCS (p53ACT50 / EC50), 10% FCS)","LDH Release (T22 Cells), 0% FCS (LDH50) [3]","LDH Release (T22 Cells), 10% FCS (LDH50) [3]",improvement of NanoBRET IC50 in serum free conditions over high serum conditions [4],"LDH release in HEK293 cells, absence of serum (in words) [5]","LDH release in HEK293 cells, high serum conditions (in words) [5]","cytotoxicity (LDH leakage) in the library screen, absence of serum (in words) ([3]; absence of serum, within 2 hours after treatment)"
CC(=O)N[C@@H](CCCCN)C(=O)N[C@@H](CCCCN)C(=O)NCCCCCC(=O)N[C@H](C(=O)N[C@@H](CO)C(=O)N[C@@H](Cc1ccccc1)C(=O)N[C@]1(C)CCCCCCC=CCCC[C@@](C)(C(=O)N[C@@H](CCC(=O)O)C(=O)N[C@@H](CC(N)=O)C(=O)N[C@@H](Cc2ccccc2)C(N)=O)NC(=O)[C@H](CC(C)C)NC(=O)[C@H](CC(C)C)NC(=O)[C@H](C)NC(=O)[C@H](Cc2c[nH]c3ccccc23)NC(=O)[C@H](Cc2ccc(O)cc2)NC(=O)[C@H](CCC(=O)O)NC1=O)[C@@H](C)O [VIP-82] (Ac-KK[Ahx]TSF[R8]EYWALL[S5]ENF-NH2; staple 7-14),2 fold,24.4 ± 2.3 nM,800 ± 100 nM,10000 ± 100 nM,did not cause any measurable LDH release; also recorded: No release,No release,4.5 fold,remained inert,absence of LDH release,
CC(=O)N[C@H](C(=O)N[C@@H](CO)C(=O)N[C@@H](Cc1ccccc1)C(=O)N[C@]1(C)CCCCCCC=CCCC[C@@](C)(C(N)=O)NC(=O)[C@H](CC(C)C)NC(=O)[C@H](CC(C)C)NC(=O)[C@H](C)NC(=O)[C@H](Cc2c[nH]c3ccccc23)NC(=O)[C@H](Cc2ccc(O)cc2)NC(=O)[C@H](CCC(=O)O)NC1=O)[C@@H](C)O [sMTIDE-02],,,,,50.5 ± 1.7 µM,No release,9 fold,induced significant amounts of LDH release,absence of LDH release,induced LDH leakage
